Columns and labels:
Format in all cases: cell-based, Murine
[1] = system: MSCs; assay: YAP localization in MSCs confined on fibronectin line patterns treated with modulators of nuclear import; conditions: for YAP Ratio with increasing Kmax XY: fibronectin line patterns 1.5-8 μm, Pitstop2 30 μM 1 hour; for nuclear YAP on thick (8 μm) and thin (1.5 μm) line patterns: microscopy, FIGS. 15B-15D
Description: Glass coverslips were adhesively micropatterned on 22*22 mm no. 1 with a UV-based patterning system (PRIMO, Alveole Lab, Paris, France). Glass coverslips were incubated with Poly-L-Lysine (PLL, Sigma) solution (5 mg/mL) prepared in 0.1 M HEPES buffer (pH 8.5) for 1 hour at room temperature, followed by rinsing with MiliQ™ water. Positively charged PLL electrostatically adsorbed onto the negatively charged surface of silicone substrates and allowed protein attachment after printing. The coverslips were then incubated with Polyethylene glycol valeric acid (PEG-SVA, Laysan Bio) prepared in 0.1 M HEPES buffer (pH 8.5) for 30 minutes at room temperature, followed by thorough rinsing with phosphate buffer saline (PBS) pH 7. PEG-SVA acts as an antifouling brush layer that repels protein attachment. The coverslips were then covered with the UV sensitive photo-initiator solution of PLPP (Alveole Lab, Paris, France) and placed on the stage of a microscope (Nikon Ti2 Eclipse) equipped with the UV-patterning system.
To generate the patterns, open-source graphics software programs were used, Inkscape and ImageJ, to generate binary 8-bit mask image files that were loaded into PRIMO's control software. The desired pattern was generated by a digital micromirror array in the PRIMO system and projected using a 375 nm UV laser with an intensity of 29 mW/mm^2 via 20×/0.45NA objective. The projected pattern results in localized photodegradation of the antifouling PEG-SVA brush, in the shape of the desired pattern. An exposure dose of 20 seconds was adequate to complete photodegradation of the PEG-SVA brush. Following UV exposure, the coverslips were washed with PBS and incubated them for 1 hr at room temperature with 40 μg/mL fibronectin (Sigma) in PBS to adsorb the protein to the exposed PLL surface. Excess protein was rinsed off with PBS 3 times prior to cell seeding.
(§1) To observe endogenous YAP localization, the MSCs were fixed with 4% paraformaldehyde for 15 min in room temperature and washed 3 times with PBS. The cells were permeabilized with 0.1% Triton X-100 diluted in PBS for 10 minutes. To avoid any nonspecific binding, cells were incubated with 1% bovine serum albumin (BSA) in PBS for 30 minutes at room temperature. To visualize YAP, cells were first incubated with 10 μg/ml Anti-YAP1 mouse monoclonal antibody (ab56701, Abcam™) diluted in 1% BSA in PBS overnight, followed by PBS wash and 1 hour incubation with 10 μg/ml Donkey Anti-Mouse IgG H&L (Alexa Fluor™ 647) secondary antibody (ab150107, Abcam™) diluted in 1% BSA in PBS. For nuclear characterization, nuclei were stained with 10 μg/ml Bisbenzimide Hoechst 33342 trihydrochloride (Sigma™) in PBS for 20 minutes, cells were washed with PBS.
To identify the mechanisms involved in YAP localization via nuclear curvature, MSCs were confined on fibronectin line patterns of decreasing thickness and then exposed to various drugs that manipulate active and passive nuclear import mechanisms. Finally, MSCs were fixed and stained with Anti-YAP1 antibody and Hoechst as explained above. To inhibit active nuclear import, MSCs were treated with 40 μM Importazole (cayman chemicals) for 1 hour, it inhibits importinβ/Ran GTP nuclear import pathway. For inhibiting both active and passive nuclear import, MSCs were treated with 30 μM Pitstop2 (abcam) for 1 hour, it disrupts nuclear pore complex structure and blocks nuclear pores. […]

[2] = system: MSCs; assay: Cytochalasin D treatment: endogenous YAP localization and nuclear deformation in MSCs on fibronectin-coated glass coverslips; conditions: versus wildtype MSCs
Description: For YAP localization measurements MSCs were imaged in two channels one for iRFP YAP transfected or Alexa 647 conjugated secondary antibody-stained cells (Ex 647 nm laser) and other for Hoechst-stained nuclei (Ex 405 nm laser). The principal metric for YAP quantification was the ratio of fluorescence of iRFP YAP in the nucleus to iRFP YAP in the cytoplasm and is referred to as the YAP Ratio. Image segmentation was performed using a custom MATLAB code, that segments the nucleus from Hoechst and cytoplasm from YAP and measures the ratio of total iRFP YAP fluorescence inside the nucleus to total iRFP YAP fluorescence in the cytoplasm.
as §1
To study the role of nuclear deformation in YAP localization, XYZ stacks of Hoechst-stained nuclei of iRFP YAP transfected MSCs were captured using confocal microscope (Leica TCS SP8, 63× objective) with a closed pinhole 0.5 AU and thin Z step size of 0.3 μm. All the XYZ stacks were analyzed using a custom MATLAB code that measures nuclear volumes, surface area, height, major axis, minor axis, and curvature. In brief, the three-dimensional XYZ stacks were, preprocessed by background subtraction threshold, and binarization. The nuclear volumes, surface area, height, major axis, and minor axis were first measured in pixels using regionprops3™ in MATLAB, which were then converted to microns. Nuclear flatness, Nuclear Eccentricity and Nuclear Aspect Ratio were measured using the following equations: […]
For nuclear curvature analysis, XYZ stacks of Hoechst-stained nuclei were resliced into 2D image sections in XY, XZ and YZ directions. For each resliced 2D nuclear image, curvature was measured across the nuclear boundary, using a curvature function in MATLAB. […] This provided us with distribution of curvature values of the complete nucleus quantified from resliced nuclear images in all three dimensions of XY, XZ and YZ separately (FIGS. 9A-9L). […]

[3] = system: MSCs transfected with Nesprin 2G tension sensor; assay: Nesprin 2G FRET tension sensor, nuclear membrane tension in MSCs; conditions: before versus after actin depolymerization
Source text: To measure nuclear membrane tension, MSCs were co-transfected Nesprin tension sensor (pcdna nesprin TS, 68127, Addgene) and iRFP-YAP plasmid. Nesprin tension sensors are fluorescent resonance energy transfer-based tension biosensors for nesprin 2G, a structural protein at the LINC complex, which links actin cytoskeleton to the nucleus. For control experiments, MSCs were transfected with Nesprin headless control (pcdna nesprin HL, 68128, Addgene), which lacks the actin-binding domain and is localized on the nuclear membrane. […]
All the image processing and analysis was performed on open-source Image J software. […] Ratio images were calculated by dividing the unmixed venus channel by the unmixed teal channel. For each image, binary masks were manually created in ImageJ to exclude pixels outside of the nuclear membrane as determined by the mVenus channel. […] Local FRET intensity and local curvature were measured using Kappa Curvature Analysis plugin in Image J. In brief, the 2D FRET images were opened in Kappa Curvature Analysis plugin and using a selection tool, points were manually selected across the nuclear membrane and a closed curvature fit was performed. […]

[4] = Importazole 40 μM 1 hour, trans-1,2-Cyclohexanediol 258 mM 5 mins
[5] = 1.5 μM for 2 hours, fibronectin-coated glass coverslips

SMILES: O=C1NC(=NS(=O)(=O)c2cccc3ccccc23)S/C1=C\c1ccc(Br)cc1 [Pitstop2]
- YAP Ratio with increasing Kmax XY [1, 4]: complete inhibition of curvature influenced YAP Ratio
- nuclear YAP on thick (8 μm) and thin (1.5 μm) line patterns [1]: low nuclear YAP on both thick (8 μm) and thin (1.5 μm) line patterns

SMILES: C=C1[C@@H](C)[C@H]2[C@H](Cc3ccccc3)NC(=O)[C@]23[C@H](OC(C)=O)/C=C/[C@@](C)(O)C(=O)[C@@H](C)C/C=C/[C@H]3[C@@H]1O [Cytochalasin D]
- YAP Ratio (nuclear to cytoplasmic YAP, endogenous, anti-YAP antibody) [2, 5]: low YAP ratio
- nuclear volume [2, 5]: high nuclear volumes
- YAP Ratio (nuclear to cytoplasmic YAP, endogenous, anti-YAP antibody) ([2]; 1.5 μM for 2 hours, fibronectin-coated glass coverslips, listed as Cyto D): lower YAP Ratios
- maximum nuclear curvature (Kmax XZ) / nuclear curvature distribution ([2]; Hoechst-stained nuclei, XYZ stacks, listed as Cyto D): lower maximum curvature in XZ
- FRET intensity (increase = decrease in nuclear membrane tension) [3]: increase in FRET intensity

SMILES: CC(Nc1nc(N2CCCC2)nc2ccccc12)c1ccccc1 (stereo not shown) [importazole, Importazole]
- YAP Ratio with increasing Kmax XY [1, 4]: small increase in YAP ratios with increasing Kmax XY
- YAP Ratio compared with untreated MSCs ([1]; fibronectin line patterns, Importazole 40 μM 1 hour, trans-1,2-Cyclohexanediol 258 mM 5 mins): substantially less than untreated MSCs
- nuclear YAP on thick (8 μm) and thin (1.5 μm) line patterns [1]: low nuclear YAP on both thick (8 μm) and thin line patterns (1.5 μm)
